From PubChem BioAssay (NCI)
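Five compound concentrations were applied to cells in 96-well plates for 48 hours; endpoints were derived by simple linear interpolation of the resulting dose-response curve. GI50 is the concentration that inhibits growth by half. TGI: concentration producing complete growth inhibition.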

Tests used:
Assay in all cases: growth of human tumour cells (NCI), 48 h
A549 NSCLC = test system: A549 NSCLC
SN12C renal = test system: SN12C renal
CCRF-CEM leukemia = test system: CCRF-CEM leukemia
LOX IMVI melanoma = test system: LOX IMVI melanoma
NCI/ADR-RES ovarian = test system: NCI/ADR-RES ovarian
ACHN renal = test system: ACHN renal
MCF7 breast = test system: MCF7 breast
HL-60(TB) leukemia = test system: HL-60(TB) leukemia
UO-31 renal = test system: UO-31 renal
SF-539 CNS = test system: SF-539 CNS

Structure (SMILES) | TGI (A549 NSCLC) [µM] | TGI (SN12C renal) [µM] | TGI (CCRF-CEM leukemia) [µM] | TGI (LOX IMVI melanoma) [µM] | TGI (NCI/ADR-RES ovarian) [µM] | TGI (ACHN renal) [µM] | TGI (MCF7 breast) [µM] | TGI (HL-60(TB) leukemia) [µM] | TGI (UO-31 renal) [µM] | TGI (SF-539 CNS) [µM] | GI50 (A549 NSCLC) [µM] | GI50 (SN12C renal) [µM] | GI50 (CCRF-CEM leukemia) [µM] | GI50 (LOX IMVI melanoma) [µM] | GI50 (NCI/ADR-RES ovarian) [µM] | GI50 (ACHN renal) [µM] | GI50 (MCF7 breast) [µM] | GI50 (HL-60(TB) leukemia) [µM] | GI50 (UO-31 renal) [µM] | GI50 (SF-539 CNS) [µM]
COC1CC(OC2C(C)OC(OC3C(C)OC(OC4C(O)CC(O[C@H]5CC[C@@]6(C)C(=CC[C@]7(O)[C@@H]6C[C@@H](OC(C)=O)[C@@]6(C)[C@]7(O)CC[C@@]6(O)C(C)=O)C5)OC4C)CC3OC)CC2OC)OC(C)C1O (stereo partly drawn) | > 12.5 | > 12.5 | > 12.5 | > 12.5 | > 12.5 | > 12.5 | > 12.5 | > 12.5 | > 12.5 | > 12.5 |  |  |  |  |  |  |  |  |  | 
Fc1ccc(N=C/C=C/Nc2ccc(F)cc2)cc1 | 21.8 | 28.3 | > 51.3 | 18.5 | 26.4 | 15 | 28.3 | 10.3 | 21 | 27.2 |  |  |  |  |  |  |  |  |  | 
CCCCCCCCCCCCc1ccc(S(=O)(=O)O)cc1.[Zn+2] | > 100 | > 100 | > 100 | > 100 | > 100 | > 100 | > 100 | > 100 | > 100 | > 100 |  |  |  |  |  |  |  |  |  | 
Nc1ccccc1.[C-]#[O+].[C-]#[O+].[C-]#[O+].[C-]#[O+].[C-]#[O+].[Cr] | > 10 | > 10 | > 10 | 8.56 | 9.79 | > 10 | > 10 | 6.94 | 9.66 | > 10 | 5.18 | 3.9 | 2.93 | 3.15 | 2.76 | 4.84 | 2.43 | 1.68 | 1.86 | 3.28
CSC1C(=O)Nc2ccc3ccccc3c21 (stereo not drawn) | > 100 | 41.9 | 89.3 | 31 | > 100 | 92.4 | > 100 | 10.8 | 33.2 | 45.7 |  |  |  |  |  |  |  |  |  | 
CSc1c(C#N)c(N)nc2c(N=Nc3ccc(Br)cc3)c(N)nn12 | 25.1 | 13.4 | 10.2 | 3.58 | 47.5 | 18.5 | 8.63 | 9.1 | 28.6 | 23.6 |  |  |  |  |  |  |  |  |  | 
COc1ccc(NC(=O)CC(=O)n2nc(C)c(N=Nc3cccc(C)c3)c2C)cc1 | > 100 | > 100 | > 100 | > 100 | > 100 | > 100 | > 100 | > 100 | > 100 | > 100 |  |  |  |  |  |  |  |  |  | 
CC1=NN(C(=O)CC(=O)Nc2ccccc2Cl)C(=O)C1N=Nc1ccc(S(=O)(=O)c2ccc(N=NC3C(=O)N(C(=O)CC(=O)Nc4ccccc4Cl)N=C3C)cc2)cc1 (stereo not drawn) | > 100 | > 100 | > 100 | > 100 | > 100 | > 100 | > 100 | > 100 | > 100 | > 100 |  |  |  |  |  |  |  |  |  | 
COC(=O)C1=C(OC(=O)/C=C/c2ccccc2)C(C(=O)OC)[C@@]2(O)[C@@H](C(=O)OC)[C@H](C)C[C@@H]1[C@@H]2C(=O)OC (stereo partly drawn) | 58.4 | 41.7 | > 100 | 93.2 | 41.5 | > 100 | 91.4 | > 100 | > 100 | 52.6 |  |  |  |  |  |  |  |  |  | 
C=CC(OC(C)=O)c1ccc(OC(=O)C(C)C)c(OC)c1 (stereo not drawn) | 38.7 | 15.2 | 5.03 | 5.18 | 60.8 | 10.4 | 5.54 | > 23.6 | 10.9 | 22.6 |  |  |  |  |  |  |  |  |  | 
CC12CC3OC(=O)C1COC14OC5(C2C1=O)C(O)(CCC1C4CC2OC24CC=CC(=O)C14C)C(=O)OC35C (stereo not drawn) | > 100 | 60.1 | 24.1 | 29.5 | > 100 | 30.8 | 40.9 | 28.7 | 31.1 | 28.4 |  |  |  |  |  |  |  |  |  | 
CC(=O)OC(Cc1ccc2ccccc2n1)(C(F)(F)F)C(F)(F)F | 44.3 | 7.27 | 1.95 | 0.409 | > 19.6 | 14.4 | 0.559 | 0.352 | 7.12 | 7.71 |  |  |  |  |  |  |  |  |  | 
CSc1cc(-c2ccccn2)nc(-c2ccccn2)c1 | 3.58 | 13.4 | > 100 | 1.52 | 1 | 0.977 | 10.1 | 0.89 | 1.64 | 6.06 |  |  |  |  |  |  |  |  |  | 
CCOC(=O)c1c(Br)c(-c2ccc(OC)cc2)c(Br)n1C | 82.3 | 49.2 | 40.2 | 41.6 | 55.3 | > 100 | 39.7 | 14.1 | 89.2 | 70.9 |  |  |  | 17.5 | 23.7 |  | 15.9 |  |  | 
CCOC(=O)C(CC(C)C)NC(=O)CSc1nnc(COc2ccc(Cl)cc2)n1-c1ccccc1 (stereo not drawn) | 45.9 | 28.9 | 23.8 | 28.9 | 44.3 | 26 | 35 | 43.4 | 3.68 | 42.3 |  |  |  |  |  |  |  |  |  | 
COC12CCCN1c1ccn(Cc3ccccc3)c(=O)c1C2=O (stereo not drawn) | > 100 | > 100 | > 100 | > 100 | > 100 | > 100 | > 100 | > 100 | > 100 | > 100 |  |  |  |  |  |  |  |  |  | 
